Results from patent US20090311217A1, “3-SUBSTITUTED-1H-INDOLE COMPOUNDS, THEIR USE AS MTOR KINASE AND PI3 KINASE INHIBITORS, AND THEIR SYNTHESES” (priority 2008, published 2009).
pIC50: −log10 of the molar value. Where two headings read alike, the source gives them in different places.

What was measured:
Assay type in all cases: biochemical
[1] = biological target: PI3K-alpha (Homo sapiens, UniProt P42336); experiment: PI3K-alpha fluorescence polarization assay
[2] = biological target: PI3K-beta (Homo sapiens, UniProt P42338); experiment: PI3K-beta fluorescence polarization assay; conditions: read-out: PI3Kβ Avg. IC50
Experimental: PI3K-Alpha, PI3K-Beta, PI3K-Gamma, and PI3K-delta Fluorescence Polarization Assay Protocols
PI3-Kinase reactions were performed in 5 mM HEPES, pH 7, 2.5 mM MgCl2, and 25 μM ATP, with diC8-PI(4,5)P2 (Echelon, Salt Lake City Utah) as substrate. Nunc 384-well black polypropylene fluorescent plates were used for PI3K assays. Reactions were quenched by the addition of EDTA to a final concentration of 10 mM. Final reaction volumes were 10 μl. For evaluation of PI3K inhibitors, 5 ng of enzyme (PI3K-alpha, beta, gamma, or delta) and 2.5 μM of substrate was used per […] reaction volume, and inhibitor concentrations ranged from 100 μM to 20 μM; the final level of DMSO in reactions never exceeded 2%. Reactions were allowed to proceed for one hour at 25° C. After 1 hour, GST-tagged GRP1 (general receptor for phosphoinositides) PH domain fusion protein was added to a final concentration of 100 nM, and BODIPY-TMRI(1,3,4,5)P4 (Echelon) was also added to a final concentration of 5 nM. Final sample volumes were 25 μl with a final DMSO concentration of 0.8%. Assay Plates were read on Perkin-Elmer Envision plate readers with appropriate filters for Tamra [BODIPY-TMRI(1,3,4,5)P4]. Data obtained were used to calculate enzymatic activity and enzyme inhibition by inhibitor compounds.

[3] = biological target: PI3K-gamma (Homo sapiens, UniProt P48736); experiment: PI3K-gamma fluorescence polarization assay; conditions: PI3Kγ Avg. IC50
Method in brief: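 Reactions used 5 ng enzyme with 2.5 μM diC8-PI(4,5)P2 and 25 μM ATP in 5 mM HEPES pH 7, 2.5 mM MgCl2, run 1 h at 25° C. After an EDTA quench (10 mM), 100 nM GST-GRP1 PH domain and 5 nM BODIPY-TMR-IP4 were added and fluorescence polarization was read.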

[4] = biological target: PI3K-delta (Homo sapiens, UniProt O00329); experiment: PI3K-delta fluorescence polarization assay
[5] = biological target: T1, human TOR (Homo sapiens, UniProt P42345); experiment: mTOR enzyme assay (DELFIA, His6-S6K substrate); conditions: read-out: mTOR Kinase Avg. IC50
T1 construct: FLAG

Chain of PI3K-alpha (P42336 whole entry, species assumed): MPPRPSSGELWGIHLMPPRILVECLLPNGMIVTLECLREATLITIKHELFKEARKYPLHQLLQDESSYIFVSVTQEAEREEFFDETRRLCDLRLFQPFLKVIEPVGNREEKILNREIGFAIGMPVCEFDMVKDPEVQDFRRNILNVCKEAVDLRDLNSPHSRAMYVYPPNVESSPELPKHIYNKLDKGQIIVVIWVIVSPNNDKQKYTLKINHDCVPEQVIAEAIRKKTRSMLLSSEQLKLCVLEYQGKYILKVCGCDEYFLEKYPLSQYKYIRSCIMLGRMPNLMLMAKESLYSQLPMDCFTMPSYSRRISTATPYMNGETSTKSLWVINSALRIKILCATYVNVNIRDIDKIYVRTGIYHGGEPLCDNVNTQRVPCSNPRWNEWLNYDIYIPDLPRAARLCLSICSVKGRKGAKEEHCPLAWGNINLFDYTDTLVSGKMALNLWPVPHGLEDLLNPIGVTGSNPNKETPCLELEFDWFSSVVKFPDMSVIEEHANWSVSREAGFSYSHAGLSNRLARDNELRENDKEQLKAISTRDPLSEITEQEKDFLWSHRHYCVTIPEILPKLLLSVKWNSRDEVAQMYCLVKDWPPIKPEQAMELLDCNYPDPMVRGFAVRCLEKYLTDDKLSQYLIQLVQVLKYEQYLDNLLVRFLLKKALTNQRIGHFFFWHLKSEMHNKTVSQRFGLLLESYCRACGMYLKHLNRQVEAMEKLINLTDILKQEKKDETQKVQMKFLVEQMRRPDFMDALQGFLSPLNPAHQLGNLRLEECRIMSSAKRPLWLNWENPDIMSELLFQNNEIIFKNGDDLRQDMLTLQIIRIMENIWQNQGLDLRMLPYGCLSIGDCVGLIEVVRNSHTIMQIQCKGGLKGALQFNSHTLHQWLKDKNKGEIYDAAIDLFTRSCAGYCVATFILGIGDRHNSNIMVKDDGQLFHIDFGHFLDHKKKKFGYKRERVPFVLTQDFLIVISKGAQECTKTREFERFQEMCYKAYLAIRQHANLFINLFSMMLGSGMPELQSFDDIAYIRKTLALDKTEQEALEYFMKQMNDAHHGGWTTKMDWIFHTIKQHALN
Chain of PI3K-alpha (P27986 whole entry partner, species assumed): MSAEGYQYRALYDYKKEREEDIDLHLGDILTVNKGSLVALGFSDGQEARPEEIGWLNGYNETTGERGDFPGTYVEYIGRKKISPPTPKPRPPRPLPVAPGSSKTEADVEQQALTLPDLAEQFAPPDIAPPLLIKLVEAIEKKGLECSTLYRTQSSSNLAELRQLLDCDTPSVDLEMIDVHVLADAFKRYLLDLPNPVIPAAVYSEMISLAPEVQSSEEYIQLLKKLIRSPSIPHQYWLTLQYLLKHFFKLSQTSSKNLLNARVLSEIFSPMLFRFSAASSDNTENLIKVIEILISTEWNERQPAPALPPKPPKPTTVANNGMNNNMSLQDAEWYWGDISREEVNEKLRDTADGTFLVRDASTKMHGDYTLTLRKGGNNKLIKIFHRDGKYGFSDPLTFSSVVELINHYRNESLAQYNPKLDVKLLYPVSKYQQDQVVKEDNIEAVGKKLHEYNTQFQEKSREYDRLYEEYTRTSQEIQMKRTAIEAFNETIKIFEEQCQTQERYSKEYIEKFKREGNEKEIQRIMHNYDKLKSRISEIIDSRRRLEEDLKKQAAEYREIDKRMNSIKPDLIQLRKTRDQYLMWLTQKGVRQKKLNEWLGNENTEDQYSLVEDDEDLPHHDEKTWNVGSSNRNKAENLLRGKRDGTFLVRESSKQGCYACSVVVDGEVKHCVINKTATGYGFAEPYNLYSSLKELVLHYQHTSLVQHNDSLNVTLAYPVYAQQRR
Chain of PI3K-beta (P42338 whole entry, species assumed): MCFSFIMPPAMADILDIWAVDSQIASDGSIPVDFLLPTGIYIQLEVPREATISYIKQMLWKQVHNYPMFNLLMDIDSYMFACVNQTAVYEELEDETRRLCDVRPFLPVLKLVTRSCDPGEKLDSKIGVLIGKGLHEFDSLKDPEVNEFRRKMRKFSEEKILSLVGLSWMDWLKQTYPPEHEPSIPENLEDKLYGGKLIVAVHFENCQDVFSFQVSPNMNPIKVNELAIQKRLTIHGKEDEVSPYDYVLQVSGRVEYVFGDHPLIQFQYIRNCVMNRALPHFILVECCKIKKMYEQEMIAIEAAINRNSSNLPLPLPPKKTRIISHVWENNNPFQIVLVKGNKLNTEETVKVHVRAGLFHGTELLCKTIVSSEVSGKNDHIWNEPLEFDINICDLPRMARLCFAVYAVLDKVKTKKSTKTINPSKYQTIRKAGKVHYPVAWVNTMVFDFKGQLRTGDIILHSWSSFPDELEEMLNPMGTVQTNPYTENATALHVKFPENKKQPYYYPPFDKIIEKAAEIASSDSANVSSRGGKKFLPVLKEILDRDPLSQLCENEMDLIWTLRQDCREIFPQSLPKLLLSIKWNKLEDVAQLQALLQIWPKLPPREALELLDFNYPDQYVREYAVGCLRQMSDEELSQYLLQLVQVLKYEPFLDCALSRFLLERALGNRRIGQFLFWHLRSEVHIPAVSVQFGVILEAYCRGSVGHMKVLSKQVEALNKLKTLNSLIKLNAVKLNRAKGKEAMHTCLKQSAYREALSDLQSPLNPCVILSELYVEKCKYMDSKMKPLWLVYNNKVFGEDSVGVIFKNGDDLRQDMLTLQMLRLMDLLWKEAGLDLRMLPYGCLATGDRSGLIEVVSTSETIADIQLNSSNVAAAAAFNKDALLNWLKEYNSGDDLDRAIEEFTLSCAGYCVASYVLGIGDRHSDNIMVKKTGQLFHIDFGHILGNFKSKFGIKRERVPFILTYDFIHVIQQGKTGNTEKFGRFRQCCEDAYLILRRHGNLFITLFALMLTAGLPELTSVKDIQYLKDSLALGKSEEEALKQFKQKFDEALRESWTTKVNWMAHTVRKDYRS
Chain of PI3K-beta (P27986 whole entry partner, species assumed): as the sequence (P27986 whole entry partner, species assumed) above
Chain of PI3K-delta (O00329 whole entry, species assumed): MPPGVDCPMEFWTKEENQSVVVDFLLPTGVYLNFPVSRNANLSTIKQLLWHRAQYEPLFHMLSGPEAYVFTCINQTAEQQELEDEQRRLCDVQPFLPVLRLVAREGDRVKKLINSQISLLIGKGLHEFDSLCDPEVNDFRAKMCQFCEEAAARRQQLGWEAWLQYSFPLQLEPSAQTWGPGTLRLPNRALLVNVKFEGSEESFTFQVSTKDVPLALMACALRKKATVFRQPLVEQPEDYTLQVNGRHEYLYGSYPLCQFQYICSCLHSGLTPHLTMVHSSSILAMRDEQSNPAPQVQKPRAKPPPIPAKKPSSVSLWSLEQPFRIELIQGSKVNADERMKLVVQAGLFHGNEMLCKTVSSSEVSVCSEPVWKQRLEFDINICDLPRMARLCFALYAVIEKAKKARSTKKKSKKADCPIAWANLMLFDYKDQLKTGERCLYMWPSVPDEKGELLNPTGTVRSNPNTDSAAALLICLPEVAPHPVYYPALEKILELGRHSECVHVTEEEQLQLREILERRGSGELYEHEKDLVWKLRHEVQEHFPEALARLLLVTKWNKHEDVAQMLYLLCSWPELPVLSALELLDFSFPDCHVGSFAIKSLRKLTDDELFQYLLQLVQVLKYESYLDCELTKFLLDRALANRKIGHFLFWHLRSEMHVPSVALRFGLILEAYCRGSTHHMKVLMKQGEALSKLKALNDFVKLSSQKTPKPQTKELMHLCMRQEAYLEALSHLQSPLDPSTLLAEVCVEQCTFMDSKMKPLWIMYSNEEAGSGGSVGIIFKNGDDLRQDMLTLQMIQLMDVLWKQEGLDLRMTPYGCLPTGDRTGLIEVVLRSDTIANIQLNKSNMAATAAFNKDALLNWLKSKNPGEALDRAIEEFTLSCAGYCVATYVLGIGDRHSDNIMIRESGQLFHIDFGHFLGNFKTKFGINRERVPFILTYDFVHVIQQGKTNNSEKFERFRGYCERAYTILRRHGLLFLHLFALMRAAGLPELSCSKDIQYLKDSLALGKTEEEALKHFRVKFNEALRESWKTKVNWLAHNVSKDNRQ
Chain of PI3K-delta (P27986 whole entry partner, species assumed): as the sequence (P27986 whole entry partner, species assumed) above
Chain of PI3K-gamma (P48736 whole entry, species assumed, the tested form may be a part): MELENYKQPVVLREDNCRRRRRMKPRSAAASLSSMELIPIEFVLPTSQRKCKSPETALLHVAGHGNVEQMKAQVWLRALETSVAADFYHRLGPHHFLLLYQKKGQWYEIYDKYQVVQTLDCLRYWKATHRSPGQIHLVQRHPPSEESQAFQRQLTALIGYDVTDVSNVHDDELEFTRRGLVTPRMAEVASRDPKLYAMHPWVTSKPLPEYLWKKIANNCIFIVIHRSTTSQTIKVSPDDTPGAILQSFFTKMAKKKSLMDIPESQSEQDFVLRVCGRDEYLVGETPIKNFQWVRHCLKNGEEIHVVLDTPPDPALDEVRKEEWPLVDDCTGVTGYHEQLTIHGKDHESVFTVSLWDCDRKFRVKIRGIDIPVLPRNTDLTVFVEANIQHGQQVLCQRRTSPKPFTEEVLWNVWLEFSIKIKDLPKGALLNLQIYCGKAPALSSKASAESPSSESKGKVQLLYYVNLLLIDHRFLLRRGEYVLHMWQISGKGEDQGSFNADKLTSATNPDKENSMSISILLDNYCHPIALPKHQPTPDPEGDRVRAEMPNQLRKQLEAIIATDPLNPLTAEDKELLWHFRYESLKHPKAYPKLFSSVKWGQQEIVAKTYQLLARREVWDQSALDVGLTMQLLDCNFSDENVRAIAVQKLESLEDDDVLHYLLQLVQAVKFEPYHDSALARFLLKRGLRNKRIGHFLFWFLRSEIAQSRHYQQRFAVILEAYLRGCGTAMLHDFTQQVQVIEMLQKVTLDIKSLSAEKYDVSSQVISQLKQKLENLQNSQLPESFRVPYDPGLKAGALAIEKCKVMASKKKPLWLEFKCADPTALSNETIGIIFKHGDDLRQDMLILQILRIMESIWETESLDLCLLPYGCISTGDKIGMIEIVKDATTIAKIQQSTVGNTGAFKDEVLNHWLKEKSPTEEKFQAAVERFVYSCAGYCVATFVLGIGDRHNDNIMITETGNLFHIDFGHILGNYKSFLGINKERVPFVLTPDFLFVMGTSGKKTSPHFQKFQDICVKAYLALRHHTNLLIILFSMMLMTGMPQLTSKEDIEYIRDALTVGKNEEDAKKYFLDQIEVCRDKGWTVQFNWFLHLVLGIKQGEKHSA

SMILES | pIC50 ([1]; read-out: PI3Kα Avg. IC50) | pIC50 [2] | pIC50 [3] | pIC50 ([4]; read-out: PI3Kδ Avg. IC50) | pIC50 [5] | pIC50 ([1]; PI3Kα Avg. IC50) | pIC50 [4]
COc1ccc2[nH]c(CN3CCN(C)CC3)c(/C=C3\Oc4cc(O)cc(O)c4C3=O)c2c1 [Example 346, (2Z)-4,6-Dihydroxy-2-({5-methoxy-2-[(4-methylpiperazin-1-yl)methyl]-1H-indol-3-yl}methylene)-1-benzofuran-3(2H)-one] | 8.21 | 8.11 | 7.26 | 8.52 | 7.11 |  | 
COc1ccc2c(c1)c(C=C1Oc3cc(O)cc(O)c3C1=O)c(C)n2CCCCN1CCN(CCN2CCOCC2)CC1 [Example 100, 4,6-dihydroxy-2-[(5-methoxy-2-methyl-1-{4-[4-(2-morpholin-4-ylethyl)piperazin-1-yl]butyl}-1H-indol-3-yl)methylene]-1-benzofuran-3(2H)-one] | 7.92 | 7.90 | 6.55 | 8.52 | 7.26 |  | 
COc1ccc2c(c1)c(/C=C1\Oc3cc(O)cc(O)c3C1=O)c(C)n2CCCN(C)C [Example 305, (2Z)-2-({1-[3-(Dimethylamino)propyl]-5-methoxy-2-methyl-1H-indol-3-yl}methylene)-4,6-dihydroxy-1-benzofuran-3(2H)-one] |  | 7.55 | 6.64 |  | 6.69 | 8.30 | 8.30
COc1ccc2c(c1)c(/C=C1\Oc3cc(O)cc(O)c3C1=O)c(C)n2CCO [Example 321, (2Z)-4,6-Dihydroxy-2-{[1-(2-hydroxyethyl)-5-methoxy-2-methyl-1H-indol-3-yl]methylene}-1-benzofuran-3(2H)-one] | 8.70 | 8.00 | 7.81 | 8.74 | 8.16 |  | 
COc1ccc2[nH]c(-c3cnn(C)c3)c(/C=C3\Oc4cc(O)cc(O)c4C3=O)c2c1 [Example 330, (2Z)-4,6-Dihydroxy-2-{[5-methoxy-2-(1-methyl-1H-pyrazol-4-yl)-1H-indol-3-yl]methylene}-1-benzofuran-3(2H)-one] | > 8.74 | 9.00 | 8.52 | 8.82 | > 7.77 |  | 
COc1ccc2c(c1)c(C=C1Oc3cc(O)cc(O)c3C1=O)c(C)n2CCCN1CCN(CCO)CC1 [Example 103, 4,6-dihydroxy-2-[(1-{3-[4-(2-hydroxyethyl)piperazin-1-yl]propyl}-5-methoxy-2-methyl-1H-indol-3-yl)methylene]-1-benzofuran-3(2H)-one] | 8.18 | 7.66 | 6.96 | 8.70 | 6.97 |  | 
COc1ccc2c(c1)c(C=C1Oc3cc(O)cc(O)c3C1=O)c(C)n2CCCCN1CCOCC1 [Example 97, 4,6-dihydroxy-2-{[5-methoxy-2-methyl-1-(4-morpholin-4-ylbutyl)-1H-indol-3-yl]methylene}-1-benzofuran-3(2H)-one] | 8.06 | 8.05 | 6.86 | 9.05 | > 7.33 |  | 
O=C1/C(=C/c2c[nH]c3ccc(Br)cc23)Oc2cc(O)cc(O)c21 [Example 50, (2Z)-2-[(5-bromo-1H-indol-3-yl)methylene]-4,6-dihydroxy-1-benzofuran-3(2H)-one] |  | 6.45 | 5.79 | 6.41 | 5.43 | 6.37 | 
COc1ccc2c(c1)c(/C=C1\Oc3cc(O)c(Br)cc3C1=O)c(C)n2CCN1CCN(C)CC1 [Example 349, (2Z)-5-Bromo-6-hydroxy-2-({5-methoxy-2-methyl-1-[2-(4-methylpiperazin-1-yl)ethyl]-1H-indol-3-yl}methylene)-1-benzofuran-3(2H)-one] | 7.08 | 6.03 | 5.25 | 7.72 | < 4.70 |  | 
COc1ccc2c(c1)c(/C=C1\Oc3cc(O)cc(O)c3C1=O)cn2CC(=O)N(C)C [Example 318, 2-{3-[(Z)-(4,6-Dihydroxy-3-oxo-1-benzofuran-2(3H)-ylidene)methyl]-5-methoxy-1H-indol-1-yl}-N,N-dimethylacetamide] | 7.08 | 6.13 | 6.16 | 7.57 | 6.60 |  | 
COc1ccc2c(c1)c(/C=C1\Oc3cc(O)cc(O)c3C1=O)c(C1CC1)n2CCN1CCC(O)C1 (stereo not drawn) [Example 342, (2Z)-2-({2-Cyclopropyl-1-[2-(3-hydroxypyrrolidin-1-yl)ethyl]-5-methoxy-1H-indol-3-yl}methylene)-4,6-dihydroxy-1-benzofuran-3(2H)-one] | 8.37 | 7.79 | 7.49 | 8.82 | 8.17 |  | 
COc1ccc2c(c1)c(C=C1Oc3cc(O)cc(O)c3C1=O)c(C)n2CCCN1CCOCC1 [Example 102, 4,6-dihydroxy-2-{[5-methoxy-2-methyl-1-(3-morpholin-4-ylpropyl)-1H-indol-3-yl]methylene}-1-benzofuran-3(2H)-one] | 8.07 | 7.35 | 7.12 | 8.72 | > 7.60 |  | 
COc1ccc2c(c1)c(C=C1Oc3cc(O)cc(O)c3C1=O)c(C)n2CCN(C)C [Example 110, 2-({1-[2-(dimethylamino)ethyl]-5-methoxy-2-methyl-1H-indol-3-yl}methylene)-4,6-dihydroxy-1-benzofuran-3(2H)-one] | 8.03 | 7.49 | 6.55 | 8.19 | 7.76 |  | 
COc1ccc2c(c1)c(/C=C1\Oc3cc(O)ccc3C1=O)c(C(=O)N(C)C)n2CCCN(C)C [Example 345, 1-[3-(Dimethylamino)propyl]-3-[(Z)-(6-hydroxy-3-oxo-1-benzofuran-2(3H)-ylidene)methyl]-5-methoxy-N,N-dimethyl-1H-indole-2-carboxamide] | 7.62 | 7.00 | 6.16 | 8.70 | < 5.40 |  | 
COc1ccc2c(c1)c(/C=C1\Oc3cc(O)cc(O)c3C1=O)c(C)n2CCN1CCC(O)C1 (stereo not drawn) [Example 327, (2Z)-4,6-Dihydroxy-2-({1-[2-(3-hydroxypyrrolidin-1-yl)ethyl]-5-methoxy-2-methyl-1H-indol-3-yl}methylene)-1-benzofuran-3(2H)-one] | 7.96 | 8.02 | 7.41 | 8.60 | > 7.52 |  | 
COc1ccc2[nH]c(C)c(C=C3Oc4cccc(O)c4C3=O)c2c1 [Example 86, 4-hydroxy-2-[(5-methoxy-2-methyl-1H-indol-3-yl)methylene]-1-benzofuran-3(2H)-one] | 6.73 | 7.01 | 6.45 | 7.33 | 7.07 |  | 
COc1ccc2c(c1)c(/C=C1\Oc3cc(O)cc(F)c3C1=O)c(C)n2CCN1CCN(C)CC1 [Example 359, (2Z)-4-Fluoro-6-hydroxy-2-({5-methoxy-2-methyl-1-[2-(4-methylpiperazin-1-yl)ethyl]-1H-indol-3-yl}methylene)-1-benzofuran-3(2H)-one] | 7.96 | 7.73 | 6.63 | 8.82 | < 6.10 |  | 
COc1ccc2c(c1)c(C=C1Oc3cc(O)cc(O)c3C1=O)c(C)n2CCCCN1CCC(N(C)C)C1 (stereo not drawn) [Example 99, 2-[(1-{4-[3-(dimethylamino)pyrrolidin-1-yl]butyl}-5-methoxy-2-methyl-1H-indol-3-yl)methylene]-4,6-dihydroxy-1-benzofuran-3(2H)-one] | 8.08 | 8.10 | 6.48 | 8.70 | 7.14 |  | 
